These results are taken from patent US20260098080A1, “A MODIFIED PROTEIN SCAFFOLD AND USE THEREOF” (EVOLVERITAS BIOTECHNOLÓGIAI KORLÁTOLT FELELOSSÉGU TÁRSASÁG, priority 2022, published 2026).

Bridges are numbered along the chain shown (N, C = ends). Where no end group is shown, it is not given here.

For this assay, the target named is fXIa (Homo sapiens, UniProt P03951). The assay is described as follows: IC50 on human blood coagulation factor fXIa. It counts as biochemical. The conditions noted are these: 3.3 nM enzyme. Here is the method: The measurements were done using non-binding microtiter plates (Greiner; #655901) in 100 μL final volume. After some pilot experiments to find the proper inhibitor concentration range, the maximal inhibitor concentration was set to 20 μM for MASP-1, 10 μM for fXIa and 40 μM for fIXa and fXIIa inhibition, and twofold serial dilutions were prepared from the proteins of the present invention. To these solutions, […] to reach a previously optimized final concentration, 10 nM for MASP-1, 50 nM for fIXa, 3.3 nM for fXIa and 27.5 nM for fXIIa.
fXIa, sequence (P03951 388-625 limits assumed): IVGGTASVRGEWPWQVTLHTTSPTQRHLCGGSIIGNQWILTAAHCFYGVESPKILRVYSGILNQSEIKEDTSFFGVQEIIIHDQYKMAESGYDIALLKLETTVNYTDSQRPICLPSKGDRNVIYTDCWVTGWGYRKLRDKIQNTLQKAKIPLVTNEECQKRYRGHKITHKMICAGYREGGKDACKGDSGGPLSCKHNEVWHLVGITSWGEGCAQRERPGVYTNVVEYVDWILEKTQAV
fXIa, sequence (P03951 19-387 partner limits assumed): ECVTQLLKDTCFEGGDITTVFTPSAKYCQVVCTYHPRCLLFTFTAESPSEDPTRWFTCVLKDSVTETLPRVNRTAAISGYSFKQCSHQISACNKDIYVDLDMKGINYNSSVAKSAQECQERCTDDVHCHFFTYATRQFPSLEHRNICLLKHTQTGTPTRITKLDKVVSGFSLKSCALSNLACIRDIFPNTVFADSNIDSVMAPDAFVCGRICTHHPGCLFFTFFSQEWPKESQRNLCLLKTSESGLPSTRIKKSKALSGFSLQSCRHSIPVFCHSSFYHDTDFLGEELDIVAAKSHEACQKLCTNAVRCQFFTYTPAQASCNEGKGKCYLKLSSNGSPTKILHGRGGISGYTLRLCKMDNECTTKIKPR
The samples were incubated for 10 minutes at room temperature. After adding the substrate (150 μM Z-Lys-S-Benzyl and 300 μM 4,4′-dithiodipyridine (DTDP) co-substrate for MASP-1; 150 μM Z-Gly-Arg-S-Benzyl and 300 μM DTDP co-substrate for fIXa; 300 μM Cbz-GPR-pNA for fXIa and 100 μM H-D-PFR-pNA for fXIIa). The reaction buffer was 50 mM Tris-HCl, 150 mM NaCl, 5 mM CaCl2), 0.1% PEG-8000 pH 7.4 for MASP-1; 20 mM HEPES, 145 mM NaCl, 0.05% Triton-X100 pH 7.4 for fIXa and fXIa; which was complemented with 5 mM CaCl2) for fXIIa.
The efficacies of the proteins of the present invention were determined in the form of (IC50) values corresponding to inhibitor concentrations that provide 50% inhibition.

The term IC50 denotes the concentration that gives 50% inhibition. A lower IC50 goes with higher potency. In the case of “KPDFCFLENDPGPCRALKRRYFYNNQTKQCERFYYGGCFGNMNNFVTLEECKNICEDG (disulfide 5-55, 14-38, 30-51) [EVO23]”, half-maximal inhibition (IC50) was put at 500 nM.

Consider “KPDFCFLENDPGPCRALKRRYFYNNQTKQCERFYYGGCLGNMNNFETLEECKNICEDG (disulfide 5-55, 14-38, 30-51) [EVO24]”, for which half-maximal inhibition (IC50) required 500 nM.
